Assay results taken from patent publication US20210231538A1, “DISSOCIATION OF BIOLOGICAL SAMPLES” (priority 2018, published 2021).
Entries after “also recorded” stand apart in the source; their conditions may differ. Structures can show the parent of a compound that is named as a salt. Where two headings read alike, the source gives them in different places.

Legend:
[1] = system: Trimethylglycine:Trifluoroacetamide fixed mouse liver single-cells; test: Lysis of fixed cells by solvents and aqueous solutions; type: cell-based; conditions: for Cell lysis effect (4 day treatment): nuclei: whether nuclei are lysed
Description: (§1) This is important for example if studying the RNA component of the cytoplasm, nuclei or the entire cell contents as a selection of the source of the RNA can be made based on the solvent used.

[2] = system: DES fixed cell cytoplasm and nuclei; test: Solubilisation of cytoplasm versus nuclei of DES fixed cells; type: cell-based; conditions: DMSO at 25% or more final concentration
Description: as §1
Such intact nuclei can be sorted, pelleted selected, and their contents analysed either in entire nuclei by using, for example, labeled antibodies specific to nuclear epitopes such as Ki-67 or, by using fluorescent nucleic acid probes for detecting RNA and DNA. Alternatively the purified nuclei can be lysed and their contents including proteins, DNA and RNA released for further analysis such as genomic DNA sequencing, protein-protein interactions, intron splicing, CHIP analysis, chromosome analysis and/or RNA sequencing.

[3] = 500 fixed, dissociated mouse liver cells per well, bromophenol blue stained, 4 day treatment
[4] = organic solvents in the range of 80-100% final concentration

Compound	Cell lysis effect (4 day treatment) [1, 3]	other results
CCN(CC)C(=O)C(F)(F)F [N,N-Diethyl-2,2,2-Trifluoroacetamide]	No lysis	–
OC(c1ccccc1)(C(F)(F)F)C(F)(F)F [1,1,1,3,3,3-Hexafluoro-2-phenyl-2-propanol]	–	lysing of Trimethylglycine:Trifluoroacetamide (1:2 mol:mol) fixed samples [1, 4]: particularly effective at effectuating cell lysis
OCCS [100% Beta-mercaptoethanol, Beta-mercaptoethanol]	100% cell lysis	Cell lysis effect (4 day treatment) ([1]; 500 fixed, dissociated mouse liver cells per well, bromophenol blue stained, 4 day treatment, listed as 10% Beta-mercaptoethanol): No lysis; Cell lysis effect (4 day treatment) ([1]; 500 fixed, dissociated mouse liver cells per well, bromophenol blue stained, 4 day treatment, listed as 20% Beta-mercaptoethanol): No lysis; Cell lysis effect (4 day treatment) ([1]; 500 fixed, dissociated mouse liver cells per well, bromophenol blue stained, 4 day treatment, listed as 40% Beta-mercaptoethanol): No lysis; Cell lysis effect (4 day treatment) ([1]; 500 fixed, dissociated mouse liver cells per well, bromophenol blue stained, 4 day treatment, listed as 60% Beta-mercaptoethanol): >50% cell lysis; Cell lysis effect (4 day treatment) ([1]; 500 fixed, dissociated mouse liver cells per well, bromophenol blue stained, 4 day treatment, listed as 80% Beta-mercaptoethanol): >80% cell lysis; lysing of Trimethylglycine:Trifluoroacetamide (1:2 mol:mol) fixed samples [1, 4]: particularly effective at effectuating cell lysis
Triton X100 [1% Triton X100]	>60% cell lysis	–
C[N+](C)(C)C.[Cl-] [5M Tetramethyl ammonium chloride, Tetramethyl ammonium chloride]	–	Cell lysis effect (4 day treatment) [1]: No lysis
Oc1ccccc1 [phenol]	–	lysing of Trimethylglycine:Trifluoroacetamide (1:2 mol:mol) fixed samples [1]: particularly effective at effectuating cell lysis
N#CS.N=C(N)N [4M Guanidine thiocyanate, Guanidine thiocyanate]	–	Cell lysis effect (4 day treatment) [1]: >50% cell lysis
CCCC[N+](CCCC)(CCCC)CCCC.[Cl-] [5M Tetrabutyl ammonium chloride, Tetrabutyl ammonium chloride]	–	Cell lysis effect (4 day treatment) [1]: No lysis
O=CN1CCOCC1 [100% Formyl morpholine, Formyl morpholine]	No lysis	–
CCO [100% Ethanol, Ethanol]	No lysis	–
NC(N)=S [Saturated Thiourea, Thiourea]	100% cell lysis	–
CCN1CCCC1=O [100% N-ethyl pyrrolidone, N-ethyl pyrrolidone]	No lysis	–
CCCCCCCCCCCCOS(=O)(=O)[O-].[Na+] [2% SDS, Sodium dodecyl sulphate]	–	Cell lysis effect (4 day treatment) ([1]; 500 fixed, dissociated mouse liver cells per well, bromophenol blue stained, 4 day treatment, listed as 0.1% SDS, sulphate): >15% cell lysis; Cell lysis effect (4 day treatment) ([1]; 500 fixed, dissociated mouse liver cells per well, bromophenol blue stained, 4 day treatment, sulphate): Complete Lysis
NP40 [1% NP40]	>50% cell lysis	–
Tetramethyl ammonium oxide [50% Tetramethyl ammonium oxide]	100% cell lysis	–
C[C@H](CCC(=O)NCCC[N+](C)(C)CCCS(=O)(=O)[O-])[C@H]1CC[C@H]2[C@@H]3[C@H](O)C[C@@H]4C[C@H](O)CC[C@]4(C)[C@H]3C[C@H](O)[C@]12C [1% CHAPS, CHAPS]	>80% cell lysis	–
NC(=O)C(F)(F)C(F)F [Saturated Tetrafluoropropionamide, Tetrafluoropropionamide]	No lysis	–
Tween-20 [1% Tween-20]	>60% cell lysis	–
NC=O [100% Formamide, Formamide]	No lysis	–

Compound	Cell lysis effect (4 day treatment) [1, 3]	other results
OC(C(F)(F)F)C(F)(F)F [100% 1,1,1,3,3,3-Hexafluoro-2-propanol, 1,1,1,3,3,3-Hexafluoro-2-propanol]	Complete lysis	Cell lysis effect (4 day treatment) ([1]; 500 fixed, dissociated mouse liver cells per well, bromophenol blue stained, 4 day treatment, listed as 10% 1,1,1,3,3,3-Hexafluoro-2-propanol): No lysis; Cell lysis effect (4 day treatment) ([1]; 500 fixed, dissociated mouse liver cells per well, bromophenol blue stained, 4 day treatment, listed as 50% 1,1,1,3,3,3-Hexafluoro-2-propanol): >40% cell lysis; Cell lysis effect (4 day treatment) ([1]; 500 fixed, dissociated mouse liver cells per well, bromophenol blue stained, 4 day treatment, listed as 90% 1,1,1,3,3,3-Hexafluoro-2-propanol): Complete lysis; lysing of Trimethylglycine:Trifluoroacetamide (1:2 mol:mol) fixed samples [1, 4]: particularly effective at effectuating cell lysis; Cell lysis effect (4 day treatment): nuclei ([1]; 4 day treatment): including nuclei; solubilisation of fixed cell cytoplasm and nuclei [2]: very efficiently solubilises both the cytoplasm and nuclei
CC(C)=O [100% Acetone, Acetone]	No lysis	–
[I-].[K+] [5M Potassium iodide, Potassium iodide]	>50% cell lysis	Cell lysis effect (4 day treatment) ([1]; 500 fixed, dissociated mouse liver cells per well, bromophenol blue stained, 4 day treatment, listed as 1M Potassium iodide): No lysis; lysing of Trimethylglycine:Trifluoroacetamide (1:2 mol:mol) fixed samples [1, 4]: efficient at lysing
NC(=O)C(F)(F)F [Saturated Trifluoroacteamide, Trifluoroacteamide]	No lysis	–
CC(O)(C(F)(F)F)C(F)(F)F [1,1,1,3,3,3-Hexafluoro-2-methyl-2-propanol]	–	lysing of Trimethylglycine:Trifluoroacetamide (1:2 mol:mol) fixed samples [1, 4]: particularly effective at effectuating cell lysis
CN1CCCC1=O [50% N-methyl pyrrolidone, N-methyl pyrrolidone]	No lysis	–
OCC(O)CO [100% Glycerol, Glycerol]	No lysis	–
Cn1ccnc1 [100% 1-Methylimidazole, 1-Methylimidazole]	No lysis	–
N=C(N)N [5M Guanidine HCl, Guanidine HCl]	>50% cell lysis	–
CN(C)C(=O)C(F)(F)F [N,N-Methyl-2,2,2-Trifluoroacetamide]	No lysis	–
C[S+](C)[O-] [100% DMSO, Dimethylsulphoxide]	>70% cell lysis	lysing of Trimethylglycine:Trifluoroacetamide (1:2 mol:mol) fixed samples [1, 4]: particularly effective at effectuating cell lysis; solubilisation of fixed cell cytoplasm and nuclei [2]: very efficiently solubilises the Trimethylglycine:Trifluoroacetamide fixed cell's cytoplasm but not the nuclei; also recorded: particularly efficient at the solubilization and removal of the cell membrane and cytoplasm but not the nucleus
[O-][Cl+3]([O-])([O-])O [5M Sodium perchlorate, Sodium perchlorate]	100% cell lysis	lysing of Trimethylglycine:Trifluoroacetamide (1:2 mol:mol) fixed samples [1, 4]: efficient at lysing
IGEPAL-CA630 [50% IGEPAL-CA630]	100% cell lysis	Cell lysis effect (4 day treatment) ([1]; 500 fixed, dissociated mouse liver cells per well, bromophenol blue stained, 4 day treatment, listed as 10% IGEPAL-CA630): No lysis; Cell lysis effect (4 day treatment) ([1]; 500 fixed, dissociated mouse liver cells per well, bromophenol blue stained, 4 day treatment, listed as 30% IGEPAL-CA630): No lysis
NC(N)=O [8M Urea, Urea]	> 95%	Cell lysis effect (4 day treatment): nuclei ([1]; 4 day treatment): not nuclei
10 mg/ml BSA (acetylated): BSA (acetylated)	No lysis	–
[Cl-].[Li+] [1M LiCl, LiCl]	No lysis	–
PEG200 [100% PEG200]	No lysis	–
CCn1ccnc1 [100% 1-Ethylimidazole, 1-Ethylimidazole]	No lysis	–
